For data set [1], the target named is T1, MERTK (Homo sapiens, UniProt Q12866).
T1 sequence (Q12866 21-999): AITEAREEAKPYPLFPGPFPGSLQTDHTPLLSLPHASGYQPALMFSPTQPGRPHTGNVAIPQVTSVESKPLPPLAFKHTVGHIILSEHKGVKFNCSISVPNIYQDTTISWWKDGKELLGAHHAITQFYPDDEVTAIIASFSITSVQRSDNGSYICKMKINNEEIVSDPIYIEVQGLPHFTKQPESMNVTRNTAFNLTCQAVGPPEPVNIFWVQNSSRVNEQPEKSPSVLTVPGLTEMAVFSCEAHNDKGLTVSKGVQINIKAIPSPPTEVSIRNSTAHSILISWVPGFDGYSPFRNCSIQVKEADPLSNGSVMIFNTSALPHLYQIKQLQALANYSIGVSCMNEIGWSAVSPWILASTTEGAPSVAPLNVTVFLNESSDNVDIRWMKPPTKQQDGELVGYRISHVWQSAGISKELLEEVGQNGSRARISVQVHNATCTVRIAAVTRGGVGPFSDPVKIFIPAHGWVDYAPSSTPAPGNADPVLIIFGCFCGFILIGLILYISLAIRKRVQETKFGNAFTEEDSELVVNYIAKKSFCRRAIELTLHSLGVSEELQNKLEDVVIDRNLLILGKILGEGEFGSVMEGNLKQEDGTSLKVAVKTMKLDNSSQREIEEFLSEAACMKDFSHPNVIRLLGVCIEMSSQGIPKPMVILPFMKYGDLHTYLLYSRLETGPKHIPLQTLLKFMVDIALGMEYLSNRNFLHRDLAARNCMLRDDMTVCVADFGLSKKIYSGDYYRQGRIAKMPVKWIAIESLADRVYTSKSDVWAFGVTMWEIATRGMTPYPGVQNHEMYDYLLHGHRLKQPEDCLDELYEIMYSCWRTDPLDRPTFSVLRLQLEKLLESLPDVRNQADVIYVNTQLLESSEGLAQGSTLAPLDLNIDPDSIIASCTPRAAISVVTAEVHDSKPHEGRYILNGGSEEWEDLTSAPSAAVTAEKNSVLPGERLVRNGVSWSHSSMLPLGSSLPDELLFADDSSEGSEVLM
Briefly: Microfluidic capillary electrophoresis (MCE) kinase activity assay, Mer. The class given is biochemical.
Procedure: (§1) All reactions were terminated by addition of 20 μL of 70 mM EDTA. After a 180 min incubation, phosphorylated and unphosphorylated substrate peptides (Table 6) were separated in buffer supplemented with 1× CR-8 on a LabChip EZ Reader equipped with a 12-sipper chip. Data were analyzed using EZ Reader software.

Data set [2] has as its target T2, AXL (Homo sapiens, UniProt P30530).
T2 sequence (P30530 26-894): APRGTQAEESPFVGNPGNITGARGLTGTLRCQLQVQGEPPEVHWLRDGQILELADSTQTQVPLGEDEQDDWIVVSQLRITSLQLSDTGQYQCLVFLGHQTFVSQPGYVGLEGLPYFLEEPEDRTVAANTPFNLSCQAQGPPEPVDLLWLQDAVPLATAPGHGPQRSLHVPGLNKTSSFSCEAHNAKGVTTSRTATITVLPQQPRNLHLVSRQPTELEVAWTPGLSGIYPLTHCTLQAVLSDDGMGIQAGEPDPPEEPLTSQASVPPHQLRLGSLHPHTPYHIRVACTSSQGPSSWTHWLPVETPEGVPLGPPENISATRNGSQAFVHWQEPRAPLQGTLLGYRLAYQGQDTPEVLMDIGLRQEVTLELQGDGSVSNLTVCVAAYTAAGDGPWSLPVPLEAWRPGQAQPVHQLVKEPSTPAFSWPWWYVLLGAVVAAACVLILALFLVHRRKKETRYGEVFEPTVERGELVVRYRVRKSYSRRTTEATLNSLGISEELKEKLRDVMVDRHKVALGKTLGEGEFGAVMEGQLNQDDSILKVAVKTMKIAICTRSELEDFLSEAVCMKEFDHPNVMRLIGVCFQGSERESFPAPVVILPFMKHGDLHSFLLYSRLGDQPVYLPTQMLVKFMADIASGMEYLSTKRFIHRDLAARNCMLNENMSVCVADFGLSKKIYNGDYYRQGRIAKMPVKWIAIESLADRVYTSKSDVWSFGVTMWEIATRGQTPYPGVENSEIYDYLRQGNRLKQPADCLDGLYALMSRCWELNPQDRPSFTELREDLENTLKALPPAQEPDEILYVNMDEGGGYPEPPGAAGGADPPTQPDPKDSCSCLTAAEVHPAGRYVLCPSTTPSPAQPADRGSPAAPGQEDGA
The data set can be described thus: Microfluidic capillary electrophoresis (MCE) kinase activity assay, Axl. The class given is biochemical.
Procedure: as §1

Data set [3] concerns the target T3, TYRO3 (Homo sapiens, UniProt Q06418).
T3 sequence (Q06418 41-890): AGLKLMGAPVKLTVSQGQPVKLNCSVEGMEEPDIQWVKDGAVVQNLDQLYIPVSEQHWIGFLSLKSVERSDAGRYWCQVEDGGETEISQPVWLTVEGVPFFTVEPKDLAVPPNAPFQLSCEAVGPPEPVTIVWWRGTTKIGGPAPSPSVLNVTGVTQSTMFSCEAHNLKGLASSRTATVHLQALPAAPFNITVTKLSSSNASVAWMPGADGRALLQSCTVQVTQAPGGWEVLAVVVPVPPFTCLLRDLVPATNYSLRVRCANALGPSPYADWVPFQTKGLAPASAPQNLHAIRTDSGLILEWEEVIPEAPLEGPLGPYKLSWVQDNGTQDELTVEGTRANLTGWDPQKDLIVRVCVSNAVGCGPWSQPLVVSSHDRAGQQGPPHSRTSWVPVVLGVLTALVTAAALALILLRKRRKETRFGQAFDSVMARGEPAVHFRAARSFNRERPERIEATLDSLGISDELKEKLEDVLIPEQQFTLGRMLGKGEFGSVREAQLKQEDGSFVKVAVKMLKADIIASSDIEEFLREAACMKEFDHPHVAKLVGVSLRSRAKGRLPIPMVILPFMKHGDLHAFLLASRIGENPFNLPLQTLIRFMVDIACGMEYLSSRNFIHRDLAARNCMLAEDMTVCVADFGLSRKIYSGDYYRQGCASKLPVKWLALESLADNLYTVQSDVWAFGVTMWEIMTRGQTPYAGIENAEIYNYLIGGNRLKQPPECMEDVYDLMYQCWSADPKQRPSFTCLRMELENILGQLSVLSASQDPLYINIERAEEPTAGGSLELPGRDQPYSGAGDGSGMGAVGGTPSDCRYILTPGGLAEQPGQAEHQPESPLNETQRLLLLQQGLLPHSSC
The data set can be described thus: Microfluidic capillary electrophoresis (MCE) kinase activity assay, Tyro3. The class given is biochemical.
Procedure: as §1

For data set [4] the following is noted: cited from earlier work.

SMILES strings stand for the structures.

Data on 16 molecules can be found in US20260232670A1, “TYRO3 SELECTIVE INHIBITORS AND USES THEREOF” (THE UNIVERSITY OF NORTH CAROLINA AT CHAPEL HILL, priority 2023, published 2026).

`O[C@H]1CC[C@H](n2cc(-c3ccc(CN4CCSCC4)cc3)c3cnc(Nc4cc(F)cc(Cl)c4)nc32)CC1` [Compound 25]: the IC50 (commonly the concentration that gives 50% inhibition) in data set [1] (Table 2, MCE assay, ATP at Km) is 100 to 1000 nM; in data set [2] (Table 2, MCE assay, ATP at Km), 100 to 1000 nM; in data set [3] (Table 2, MCE assay, ATP at Km), under 10 nM.
For `CC(C)(C)OC(=O)N1CCN(Cc2ccc(-c3cn([C@H]4CC[C@H](O)CC4)c4nc(Nc5cc(C(F)(F)F)cc(C(F)(F)F)c5)ncc34)cc2)CC1` [Compound 26], the IC50 in data set [1] (Table 2, MCE assay, ATP at Km) fell in the range of 1000 to 30000 nM; in data set [2] (Table 2, MCE assay, ATP at Km), 1000 to 30000 nM; in data set [3] (Table 2, MCE assay, ATP at Km), 10 to 100 nM.
`O[C@H]1CC[C@H](n2cc(-c3ccc(CN4CCNCC4)cc3)c3cnc(Nc4cc(C(F)(F)F)cc(C(F)(F)F)c4)nc32)CC1` [Compound 27]: the IC50 in data set [1] (Table 2, MCE assay, ATP at Km) is 100 to 1000 nM; in data set [2] (Table 2, MCE assay, ATP at Km) it was 100 to 1000 nM; in data set [3] (Table 2, MCE assay, ATP at Km) it was under 10 nM.
Turning to `CC(C)(C)OC(=O)N1CCN(Cc2ccc(-c3cn([C@H]4CC[C@H](O)CC4)c4nc(Nc5cc(F)cc(Cl)c5)ncc34)cc2)CC1` [Compound 28], the IC50 is 100 to 1000 nM in data set [1] (Table 2, MCE assay, ATP at Km); 100 to 1000 nM in data set [2] (Table 2, MCE assay, ATP at Km); under 10 nM in data set [3] (Table 2, MCE assay, ATP at Km).
Turning to `O[C@H]1CC[C@H](n2cc(-c3ccc(CN4CCNCC4)cc3)c3cnc(Nc4cc(F)cc(Cl)c4)nc32)CC1` [Compound 29], the IC50 in data set [1] (Table 2, MCE assay, ATP at Km) was under 10 nM; in data set [2] (Table 2, MCE assay, ATP at Km), 10 to 100 nM; in data set [3] (Table 2, MCE assay, ATP at Km), under 10 nM.
With `CCN1CCN(Cc2ccc(-c3cn([C@H]4CC[C@H](O)CC4)c4nc(Nc5cc(F)cc(Cl)c5)ncc34)cc2)CC1` [Compound 30], the IC50 is under 10 nM in data set [1] (Table 2, MCE assay, ATP at Km); 10 to 100 nM in data set [2] (Table 2, MCE assay, ATP at Km); under 10 nM in data set [3] (Table 2, MCE assay, ATP at Km).
`O[C@H]1CC[C@H](n2cc(-c3ccc(CN4CCN(C5CCCC5)CC4)cc3)c3cnc(Nc4cc(F)cc(Cl)c4)nc32)CC1` [Compound 31]: the IC50 was under 10 nM in data set [1] (Table 2, MCE assay, ATP at Km); 10 to 100 nM in data set [2] (Table 2, MCE assay, ATP at Km); under 10 nM in data set [3] (Table 2, MCE assay, ATP at Km).
With `CN1CCC(Oc2ccc(-c3cn([C@H]4CC[C@H](O)CC4)c4nc(Nc5cc(F)cc(Cl)c5)ncc34)cc2)CC1` [Compound 37], the IC50 in data set [1] (Table 2, MCE assay, ATP at Km) is under 10 nM; in data set [2] (Table 2, MCE assay, ATP at Km), 10 to 100 nM; in data set [3] (Table 2, MCE assay, ATP at Km) it was under 10 nM.
For the molecule `CN1CCN(Cc2ccc(-c3cn([C@H]4CC[C@@H](O)CC4)c4nc(Nc5cc(F)cc(Cl)c5)ncc34)cc2)CC1` [Compound 39], the IC50 in data set [1] (Table 3, MCE assay, ATP at Km) is under 10 nM; in data set [2] (Table 3, MCE assay, ATP at Km), 10 to 100 nM; in data set [3] (Table 3, MCE assay, ATP at Km) it was under 10 nM.
For `CN1CCC(Oc2ccc(-c3cn([C@H]4CC[C@H](O)CC4)c4nc(Nc5cc(F)cc(Cl)c5)ncc34)cc2)CC1` [Compound 60], the IC50 was under 10 nM in data set [1] (Table 7), 10 to 100 nM in data set [2] (Table 7) and under 10 nM in data set [3] (Table 7).
Regarding `CN1CCN(Cc2ccc(-c3cn([C@H]4CC[C@H](O)CC4)c4nc(Nc5cccnc5)ncc34)cc2)CC1` [Compound 64], the IC50 in data set [1] (Table 2, MCE assay, ATP at Km) is under 10 nM; in data set [2] (Table 2, MCE assay, ATP at Km), under 10 nM; in data set [3] (Table 2, MCE assay, ATP at Km), under 10 nM.
Regarding `CN1CCN(Cc2ccc(-c3cn([C@H]4CC[C@H](O)CC4)c4nc(Nc5cncnc5)ncc34)cc2)CC1` [Compound 66], the IC50 in data set [1] (Table 2, MCE assay, ATP at Km) was under 10 nM; in data set [2] (Table 2, MCE assay, ATP at Km), under 10 nM; in data set [3] (Table 2, MCE assay, ATP at Km) it was under 10 nM.
On to `CN1CCC(Oc2ccc(-c3cn([C@H]4CC[C@H](O)CC4)c4nc(Nc5cc(C(F)(F)F)cc(C(F)(F)F)c5)ncc34)cc2)CC1` [Compound 150, trans-4-(2-((3,5-bis(trifluoromethyl)phenyl)amino)-5-(4-((1-methylpiperidin-4-yl)oxy)phenyl)-7H-pyrrolo[2,3-d]pyrimidin-7-yl)cyclohexan-1-ol], for which the figures for the IC50 in data set [1] (Table 7), in data set [2] (Table 7) and in data set [3] (Table 7) were 1000 to 30000 nM, 1000 to 30000 nM and 10 to 100 nM, respectively.
Turning to `CN1CCN(C(=O)c2ccc(-c3cn([C@H]4CC[C@H](O)CC4)c4nc(Nc5cc(F)cc(Cl)c5)ncc34)cc2)CC1` [Compound 156], the IC50 in data set [1] (Table 9) was under 10 nM; in data set [2] (Table 9), 10 to 100 nM; in data set [3] (Table 9) it was under 10 nM.
Consider `CC(=O)Oc1ccccc1C(=O)O` [aspirin], for which the “baseline major bleeding risk (gastrointestinal or intracranial)” value in data set [4] (in vivo) was 1-4%.
`COC(=O)[C@H](c1ccccc1Cl)N1CCc2sccc2C1` [clopidogrel]: the “further increase of major bleeding risk on addition as a combination therapy” value in data set [4] (added to aspirin) is 1%.
